This note sets out measurements from patent EP0837859B1, “TETRAHYDROFURAN ANTIFUNGALS” (SCHERING CORPORATION, priority 1995, dated 1997).

The subject of the assay is 11 strains of C. albicans and tropicalis. The assay is described as follows: in vitro antifungal activity in EMEM (geometric mean MIC). It is filed as cell-based. The conditions noted are these: Candida albicans, read-out: geometric mean MICs.

Some results are limits rather than exact numbers.

As for `CC[C@@H]([C@H](C)O)n1ncn(-c2ccc(N3CCN(c4ccc(OC[C@H]5CC[C@](Cn6cncn6)(c6ccc(F)cc6F)O5)cc4)CC3)cc2)c1=O`, the MIC is ≥ 0.01 µg/mL.
